Measured values: ChEMBL document CHEMBL1201862, “PubChem BioAssay data set” (2004)
The source made the active and inactive calls.

Experiments:
Exodeoxyribonuclease V = target: T1, Exodeoxyribonuclease V (Escherichia coli (strain K12), UniProt P04993+P07648+P08394); experiment: E. coli RecBCD inhibitors, dose response, counter-screen for AddAB inhibitor project, absorbance, V66 E. coli, mutant T4 phage (AID 492957); assay type: functional, cell-based, Escherichia coli str. K-12 substr. MG1655
T1 sequence (P04993 whole entry): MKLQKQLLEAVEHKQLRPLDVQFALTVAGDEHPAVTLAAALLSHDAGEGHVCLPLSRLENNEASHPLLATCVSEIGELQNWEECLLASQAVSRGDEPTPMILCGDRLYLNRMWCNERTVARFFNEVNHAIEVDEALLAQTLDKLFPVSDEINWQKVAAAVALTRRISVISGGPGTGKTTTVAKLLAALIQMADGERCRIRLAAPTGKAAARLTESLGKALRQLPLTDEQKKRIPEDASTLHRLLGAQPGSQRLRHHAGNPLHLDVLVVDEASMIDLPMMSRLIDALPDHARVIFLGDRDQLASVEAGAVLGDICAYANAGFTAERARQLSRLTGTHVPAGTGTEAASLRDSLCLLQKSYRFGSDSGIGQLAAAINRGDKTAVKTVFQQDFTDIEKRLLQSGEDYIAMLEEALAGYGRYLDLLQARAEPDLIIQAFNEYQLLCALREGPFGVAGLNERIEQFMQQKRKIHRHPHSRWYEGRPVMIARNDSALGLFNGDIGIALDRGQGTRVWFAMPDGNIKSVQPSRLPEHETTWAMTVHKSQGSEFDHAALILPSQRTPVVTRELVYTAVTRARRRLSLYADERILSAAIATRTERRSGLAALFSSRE
T1 sequence (P07648 whole entry): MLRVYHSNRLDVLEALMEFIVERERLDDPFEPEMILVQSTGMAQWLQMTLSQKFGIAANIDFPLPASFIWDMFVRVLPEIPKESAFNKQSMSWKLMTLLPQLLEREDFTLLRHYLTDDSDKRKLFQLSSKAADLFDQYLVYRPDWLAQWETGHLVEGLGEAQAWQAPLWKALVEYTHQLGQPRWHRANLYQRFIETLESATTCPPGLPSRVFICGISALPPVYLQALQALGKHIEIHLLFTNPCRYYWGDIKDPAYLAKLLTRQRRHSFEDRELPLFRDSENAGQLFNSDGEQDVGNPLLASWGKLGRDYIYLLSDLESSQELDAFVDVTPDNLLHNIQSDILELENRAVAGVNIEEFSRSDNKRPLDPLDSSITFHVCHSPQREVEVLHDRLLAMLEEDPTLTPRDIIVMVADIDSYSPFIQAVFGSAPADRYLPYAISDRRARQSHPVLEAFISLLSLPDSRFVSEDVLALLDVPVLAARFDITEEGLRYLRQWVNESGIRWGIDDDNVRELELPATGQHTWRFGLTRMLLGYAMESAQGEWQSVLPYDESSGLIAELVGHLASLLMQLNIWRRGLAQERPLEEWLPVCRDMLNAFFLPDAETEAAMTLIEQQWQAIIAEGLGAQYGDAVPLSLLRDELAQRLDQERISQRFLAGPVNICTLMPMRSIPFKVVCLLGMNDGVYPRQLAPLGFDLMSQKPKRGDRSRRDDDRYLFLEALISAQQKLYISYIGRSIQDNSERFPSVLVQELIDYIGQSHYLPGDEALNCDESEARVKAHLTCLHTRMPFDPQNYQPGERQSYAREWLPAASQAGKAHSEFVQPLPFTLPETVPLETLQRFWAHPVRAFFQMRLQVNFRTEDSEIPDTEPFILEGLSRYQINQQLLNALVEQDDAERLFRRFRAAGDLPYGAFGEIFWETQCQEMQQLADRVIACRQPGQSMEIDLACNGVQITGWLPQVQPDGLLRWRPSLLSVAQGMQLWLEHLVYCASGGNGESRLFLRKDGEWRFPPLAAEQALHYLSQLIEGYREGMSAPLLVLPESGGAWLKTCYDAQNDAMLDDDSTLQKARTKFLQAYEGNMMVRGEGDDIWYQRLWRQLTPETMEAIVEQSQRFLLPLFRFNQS
T1 sequence (P08394 whole entry): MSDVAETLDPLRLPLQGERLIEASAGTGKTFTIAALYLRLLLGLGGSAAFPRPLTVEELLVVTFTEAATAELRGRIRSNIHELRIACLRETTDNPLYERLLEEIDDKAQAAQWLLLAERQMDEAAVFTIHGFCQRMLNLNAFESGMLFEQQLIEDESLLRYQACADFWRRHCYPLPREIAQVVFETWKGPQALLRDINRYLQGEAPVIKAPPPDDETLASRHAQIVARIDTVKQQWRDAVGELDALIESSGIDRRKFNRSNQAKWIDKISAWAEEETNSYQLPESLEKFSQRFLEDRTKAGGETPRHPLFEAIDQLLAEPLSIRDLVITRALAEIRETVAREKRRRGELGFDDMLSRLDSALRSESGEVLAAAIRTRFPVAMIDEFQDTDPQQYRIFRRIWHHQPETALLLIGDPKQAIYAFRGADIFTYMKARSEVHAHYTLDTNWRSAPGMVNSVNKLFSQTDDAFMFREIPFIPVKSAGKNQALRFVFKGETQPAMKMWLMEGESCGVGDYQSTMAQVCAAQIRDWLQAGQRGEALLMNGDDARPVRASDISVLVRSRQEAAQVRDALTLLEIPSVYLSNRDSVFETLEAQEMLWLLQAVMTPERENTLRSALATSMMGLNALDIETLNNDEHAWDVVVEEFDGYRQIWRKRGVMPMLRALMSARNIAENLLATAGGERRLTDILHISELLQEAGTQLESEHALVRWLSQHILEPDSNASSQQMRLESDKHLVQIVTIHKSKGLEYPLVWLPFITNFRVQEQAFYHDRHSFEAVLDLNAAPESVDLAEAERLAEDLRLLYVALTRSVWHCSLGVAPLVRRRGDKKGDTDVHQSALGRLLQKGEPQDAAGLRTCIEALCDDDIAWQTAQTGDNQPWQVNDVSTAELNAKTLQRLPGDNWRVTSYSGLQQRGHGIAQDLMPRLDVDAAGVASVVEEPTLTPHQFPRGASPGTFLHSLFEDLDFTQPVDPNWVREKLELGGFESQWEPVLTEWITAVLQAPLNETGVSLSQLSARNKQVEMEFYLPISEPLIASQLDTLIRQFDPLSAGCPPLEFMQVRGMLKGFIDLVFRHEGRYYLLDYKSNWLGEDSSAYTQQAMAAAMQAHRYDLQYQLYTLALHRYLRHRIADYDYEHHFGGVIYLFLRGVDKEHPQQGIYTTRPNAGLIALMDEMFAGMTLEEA

[1] = target: Tyrosine-protein kinase HCK (Homo sapiens, UniProt P08631); experiment: Navigating the Kinome. Panel member name: HCK; assay type: functional
[2] = target: MAP kinase-activated protein kinase 5 (Homo sapiens, UniProt Q8IW41); assay type: functional;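 also: measured as one member of a kinome panel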
[3] = target: Serine/threonine-protein kinase PAK 4 (Homo sapiens, UniProt O96013); assay type: functional;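 also: value obtained within a kinome profiling panel in which PAK4 was one of the panel members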
Chain of Serine/threonine-protein kinase PAK 4 (O96013 whole entry): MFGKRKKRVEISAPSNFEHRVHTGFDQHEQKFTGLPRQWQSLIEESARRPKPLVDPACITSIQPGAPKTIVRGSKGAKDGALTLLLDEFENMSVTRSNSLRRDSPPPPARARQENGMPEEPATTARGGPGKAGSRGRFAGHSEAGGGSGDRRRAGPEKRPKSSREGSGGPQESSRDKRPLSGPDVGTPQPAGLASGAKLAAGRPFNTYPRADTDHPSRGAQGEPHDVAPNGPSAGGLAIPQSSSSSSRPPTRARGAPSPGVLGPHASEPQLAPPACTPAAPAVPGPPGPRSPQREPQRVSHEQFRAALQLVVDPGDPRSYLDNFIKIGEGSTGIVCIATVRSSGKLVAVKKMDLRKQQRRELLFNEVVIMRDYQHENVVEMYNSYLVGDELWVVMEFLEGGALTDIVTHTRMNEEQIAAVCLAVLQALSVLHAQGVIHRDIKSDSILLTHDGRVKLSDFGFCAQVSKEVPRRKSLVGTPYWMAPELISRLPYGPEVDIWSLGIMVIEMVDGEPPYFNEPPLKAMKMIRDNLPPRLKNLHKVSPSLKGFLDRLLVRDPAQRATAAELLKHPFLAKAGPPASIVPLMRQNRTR

Chain of Tyrosine-protein kinase HCK (P08631 whole entry): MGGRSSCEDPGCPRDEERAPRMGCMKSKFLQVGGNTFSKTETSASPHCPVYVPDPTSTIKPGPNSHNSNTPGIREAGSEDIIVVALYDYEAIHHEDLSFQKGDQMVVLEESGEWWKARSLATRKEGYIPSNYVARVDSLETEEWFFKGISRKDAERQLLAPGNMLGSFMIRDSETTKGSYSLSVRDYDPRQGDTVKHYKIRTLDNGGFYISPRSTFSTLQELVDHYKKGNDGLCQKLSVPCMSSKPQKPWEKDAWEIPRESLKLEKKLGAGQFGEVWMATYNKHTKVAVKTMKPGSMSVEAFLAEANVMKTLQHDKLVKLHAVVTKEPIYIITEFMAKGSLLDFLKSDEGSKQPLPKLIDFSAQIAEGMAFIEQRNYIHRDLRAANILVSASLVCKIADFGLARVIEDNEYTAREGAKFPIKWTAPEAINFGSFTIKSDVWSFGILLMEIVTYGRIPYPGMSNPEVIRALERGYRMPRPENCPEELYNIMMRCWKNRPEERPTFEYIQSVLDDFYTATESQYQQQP
Chain of MAP kinase-activated protein kinase 5 (Q8IW41 whole entry): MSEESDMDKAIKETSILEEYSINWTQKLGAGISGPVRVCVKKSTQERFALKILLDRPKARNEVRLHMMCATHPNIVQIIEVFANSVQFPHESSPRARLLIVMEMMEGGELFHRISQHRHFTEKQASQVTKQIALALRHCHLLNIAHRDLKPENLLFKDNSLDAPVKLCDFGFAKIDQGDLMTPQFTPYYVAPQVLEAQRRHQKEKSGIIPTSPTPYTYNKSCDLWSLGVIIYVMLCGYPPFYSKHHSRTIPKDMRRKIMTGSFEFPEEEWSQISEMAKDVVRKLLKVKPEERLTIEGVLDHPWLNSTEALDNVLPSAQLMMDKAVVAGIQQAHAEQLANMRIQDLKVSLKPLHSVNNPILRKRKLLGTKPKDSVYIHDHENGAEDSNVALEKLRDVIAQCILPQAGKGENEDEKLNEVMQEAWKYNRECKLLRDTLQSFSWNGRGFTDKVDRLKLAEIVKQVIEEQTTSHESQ

Row | Ki [1] | Ki [2] | Ki [3] | Structure (SMILES) | IC50 (Exodeoxyribonuclease V)
1 |  |  |  | COCC/N=c1\scc(-c2cccs2)n1/N=C/c1ccc(O)c(O)c1O | > 119000 nM (inactive)
2 | > 3160 nM (inactive) | > 1580 nM (inactive) | 100 nM (active) | OC1CCC(Nc2cc(Cl)nc(-c3c[nH]c4ncccc34)n2)CC1 (centres undefined) | 
